Source: patent US9029376B2, “Small molecule inhibitors for the treatment or prevention of dengue virus infection” (Siga Technologies, Inc., priority 2008, dated 2015)

The molecules below were run on Dengue-2 (Strain New Guinea C) (assay: Dengue-2 viral yield assay in Vero cells). Details: Dengue virus, Vero, 48 h, read-out: Activity (anti-dengue 2 viral activity, EC50).
Assay type: cell-based
Method: Compounds that were active in the primary screen were tested for activity in viral yield assays. […] Vero cells in 12-well plates were infected with dengue-2 virus at a multiplicity of infection (MOI) of 0.1, treated with compound (or DMSO as a control), incubated at 37° C., harvested 48 hours post infection and titered on Vero cells as described above. The EC50 was calculated through ExcelFit. Those compounds with activity below 1 μM are indicated with “A”, those with activity between 1 and 10 μM are indicated with “B”, and those with activity between 10 and 25 μM with “C”.

Compared with `O=C(Nc1ccc2nc(SCC(=O)N3CCOCC3)sc2c1)c1ccc(Cl)cc1Cl` [Compound 6, 2,4-Dichloro-N-[2-(2-morpholin-4-yl-2-oxo-ethylsulfanyl)-benzothiazol-6-yl]-benzamide], `O=C(Nc1ccc2nc(SCC(=O)N3CCOCC3)sc2c1)c1ccccc1Br` [Compound 20, 2-Bromo-N-[2-(2-morpholin-4-yl-2-oxo-ethylsulfanyl)-benzothiazol-6-yl]-benzamide] is higher in EC50: 1 to 10 µM for the first, > 25 µM for the second.

First: CCOc1ccc2nc(SCC(=O)N3CCc4ccccc4C3)sc2c1 [Compound 7, 1-(3,4-Dihydro-1H-isoquinolin-2-yl)-2-(6-ethoxy-benzothiazol-2-ylsulfanyl)-ethanone]
Second: Cc1cccc(C(=O)Nc2ccc3nc(SCC(=O)N4CCOCC4)sc3c2)c1 [Compound 13, 3-Methyl-N-[2-(2-morpholin-4-yl-2-oxo-ethylsulfanyl)-benzothiazol-6-yl]-benzamide]
The EC50 of the first is lower: 1 to 10 µM for the first, 10 to 25 µM for the second.

`O=C(CSc1nc2ccccc2[nH]1)N1CCN(c2ccc(F)cc2)CC1` [Compound 8, 2-(1H-Benzoimidazol-2-ylsulfanyl)-1-[4-(4-fluoro-phenyl)-piperazin-1-yl]-ethanone] and `NC(=O)C1(N2CCCCC2)CCN(C(=O)CSc2nc3ccccc3s2)CC1` [Compound 9, 1′-[2-(Benzothiazol-2-ylsulfanyl)-acetyl]-[1,4′]bipiperidinyl-4′-carboxylic acid amide] fall in the same range of EC50: 1 to 10 µM for the first, 1 to 10 µM for the second.

For `Nc1ccc2nc(SCC(=O)N3CCOCC3)sc2c1` [Compound 16, 2-(6-Amino-benzothiazol-2-ylsulfanyl)-1-morpholin-4-yl-ethanone], the EC50 was > 25 µM.

Same assay, conditions: Dengue virus; Dengue-2 strain New Guinea C, Vero cells, MOI 0.1, harvested 48 hours post infection, viral yield; read-out: Activity (anti-dengue 2 viral activity, EC50)

First: O=C(CCc1ccccc1)Nc1ccc2nc(SCC(=O)N3CCOCC3)sc2c1 [Compound 1, N-[2-(2-Morpholin-4-yl-2-oxo-ethylsulfanyl)-benzothiazol-6-yl]-3-phenyl-propionamide]
Second: Cc1ccccc1C(=O)Nc1ccc2nc(SCC(=O)N3CCOCC3)sc2c1 [Compound 5, 2-Methyl-N-[2-(2-morpholin-4-yl-2-oxo-ethylsulfanyl)-benzothiazol-6-yl]-benzamide]
The EC50 of the first is lower: < 1 µM for the first, 1 to 10 µM for the second. The first is the more potent here.

Compared with `CCC(=O)Nc1ccc2nc(SCC(=O)N3CCCCC3)sc2c1` [Compound 2, N-[2-(2-oxo-2-piperidin-1-yl-ethylsulfanyl)-benzothiazol-6-yl]-propionamide], `CCOc1ccc2nc(SCC(=O)N3CCN(c4ccccc4)CC3)sc2c1` [Compound 14, 2-(6-Ethoxy-benzothiazol-2-ylsulfanyl)-1-(4-phenyl-piperazin-1-yl)-ethanone] is higher in EC50: < 1 µM for the first, 10 to 25 µM for the second. The first is the more potent here.

`Nc1ccc2nc(SCC(=O)N3CCN(Cc4ccccc4)CC3)sc2c1` [Compound 10, 2-(6-Amino-benzothiazol-2-ylsulfanyl)-1-(4-benzyl-piperazin-1-yl)-ethanone] and `O=C(CSc1nc2ccccc2o1)N1CCN(Cc2ccccc2)CC1` [Compound 11, 2-(Benzooxazol-2-ylsulfanyl)-1-(4-benzyl-piperazin-1-yl)-ethanone] fall in the same range of EC50: 1 to 10 µM for the first, 1 to 10 µM for the second.

`CCN(CC)C(=O)CSc1nc2ccccc2n1C(=O)NC1CCCCC1` [Compound 15, 2-Diethylcarbamoylmethylsulfanyl-benzoimidazole-1-carboxylic acid cyclohexylamide] and `O=C(CSc1nc2ccc(/N=C/c3c4ccccc4cc4ccccc34)cc2s1)N1CCOCC1` [Compound 19, 2-(6-{[1-Anthracen-9-yl-meth-(E)-ylidene]-amino}-benzothiazol-2-ylsulfanyl)-1-morpholin-4-yl-ethanone] cannot be ordered by EC50: > 25 µM for the first, > 25 µM for the second.

`O=C(CSc1nc2ccc(/N=C/c3ccc(Br)cc3)cc2s1)N1CCOCC1` [Compound 17, 2-(6-{[1-(4-Bromo-phenyl)-meth-(E)-ylidene]-amino}-benzothiazol-2-ylsulfanyl)-1-morpholin-4-yl-ethanone] and `O=C(CSc1nc2ccc(/N=C/c3ccc(Cl)cc3)cc2s1)N1CCOCC1` [Compound 18, 2-(6-{[1-(4-Chloro-phenyl)-meth-(E)-ylidene]-amino}-benzothiazol-2-ylsulfanyl)-1-morpholin-4-yl-ethanone] cannot be ordered by EC50: > 25 µM for the first, > 25 µM for the second.
